{
  "source": "patent US20030212136A1",
  "about": "(priority 2003, published 2003)",
  "key": {"physchem": {"experiment": "physchem", "details": "water"}, "[1]": {"details": "gastric pH range of 1-2, aqueous solution; cited from earlier work"}, "brain dopamine": {"system": "brain dopamine", "details": "rats, diet supplemented for 2 weeks; 70% depletion in nonsupplemented rodents; cited from earlier work"}, "GP3A transgenic mice": {"system": "GP3A transgenic mice", "details": "creatine supplementation; cited from earlier work"}, "[2]": {"system": "patients with various muscular dystrophies", "details": "supplemented for 8 weeks; cited from earlier work"}},
  "note": "Read-outs that look alike come from different tables or passages of the source.",
  "data": [
    {"compound": "CN(CC(=O)O)C(=N)N.O", "note": "[creatine monohydrate]", "values": [
      {"measurement": "partition coefficient", "setting": "Partition coefficient; studies in the laboratory", "result": "0.015±0.007"}
    ]},
    {"compound": "CCOC(=O)CN(C)C(=N)N", "note": "[Creatine Ethyl Ester, creatine ethyl ester]", "values": [
      {"measurement": "solubility thermodynamic", "setting": "physchem", "result": 206, "unit": "mg/mL"}
    ]},
    {"compound": "CN(CC(=O)O)C(=N)N", "note": "[Creatine]", "values": [
      {"measurement": "creatinine/creatine ratio at equilibrium", "setting": "[1]", "result": "greater than or equal to 30"},
      {"measurement": "reduction in brain dopamine", "setting": "brain dopamine", "result": 10, "unit": "%"},
      {"measurement": "increase of life-span", "setting": "GP3A transgenic mice", "result": "up to 26 days"},
      {"measurement": "improvement in neuromuscular symptom score", "setting": "[2]", "result": 10, "unit": "%"},
      {"measurement": "increase in strength", "setting": "[2]", "result": 3, "unit": "%"},
      {"measurement": "partition coefficient", "setting": "Partition coefficient", "result": 0.015}
    ]},
    {"compound": "CN(CC(=O)OCc1ccccc1)C(=N)N", "note": "[Creatine Benzyl Ester, creatine benzyl ester]", "values": [
      {"measurement": "solubility thermodynamic", "setting": "physchem", "result": 89.3, "unit": "mg/mL"}
    ]}
  ]
}
